Data: patent US8153773B2, “Synthesis and use of anti-reverse phosphorothioate analogs of the messenger RNA cap” (Board of Supervisors of Louisiana State University and …, priority 2007, dated 2012)

Assays:
[1] = target: T1, DcpS (Homo sapiens, UniProt Q96C86); experiment: Enzymatic hydrolysis by human DcpS; format: biochemical; parameters: key: the analogs assigned as resistant remained completely undigested under the applied conditions; the analogs assigned as hydrolyzed were hydrolyzed by DcpS with efficiency comparable to the respective unmodified parent compound; conditions: conditions giving complete degradation of unmodified parent within 40-90 min, RP HPLC
T1 sequence (Q96C86 1-337): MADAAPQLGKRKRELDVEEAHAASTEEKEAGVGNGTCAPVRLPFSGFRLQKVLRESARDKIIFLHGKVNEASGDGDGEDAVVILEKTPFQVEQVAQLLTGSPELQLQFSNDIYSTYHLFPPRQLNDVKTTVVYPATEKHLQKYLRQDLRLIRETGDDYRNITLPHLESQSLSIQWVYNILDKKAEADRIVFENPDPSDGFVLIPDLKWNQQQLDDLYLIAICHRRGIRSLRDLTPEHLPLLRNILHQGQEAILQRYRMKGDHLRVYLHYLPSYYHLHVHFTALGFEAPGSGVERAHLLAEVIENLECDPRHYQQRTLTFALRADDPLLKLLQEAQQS
Experimental: Human and nematode DcpS were expressed in Escherichia coli according to the procedures described previously (L. S. Cohen et al., “Nematode m7 GpppG and m3(2,2,7)GpppG decapping: activities in Ascaris embryos and characterization of C. elegans scavenger DcpS,” RNA, vol. 10, pp. 1609-1624 (2004)). Both proteins were stored at −80° C. in 20 mM Tris buffer, pH 7.5, containing 50 mM KCl, 0.2 mM EDTA, 1 mM DTT, 0.5 mM PMSF, and 20% glycerol. An appropriate cap analog at 1 mM concentration was treated with 5.0 or 7.0 μl of DcpS (from human or C. elegans, respectively) in 500 μl of 50 mM TRIS buffer, pH=7.9, containing 20 mM of MgCl2 and 60 mM of (NH4)2SO4 at 37° C. for 60-90 min. Every 15-20 min a 100 μl sample was collected from the reaction mixture and deactivated by incubation in 90° C. for 3 min. Collected samples were analyzed without further treatment by analytical RP HPLC using a linear gradient of methanol in 0.1 M KH2PO4, pH=6.0, from 0-50% within 15 min and UV-detection at 260 nm.
The new series of S-analogs were subjected to in vitro enzymatic hydrolysis catalyzed by DcpS from both human and C. elegans sources. In all experiments, the corresponding unmodified cap analog was used as a positive control, i.e., m^7GpppG for non-ARCA S-analogs and m2^7,2′-OGpppG for S-ARCAs. The amount of DcpS enzyme was optimized to provide complete degradation of the control substrate within 40-90 min. The samples collected from reaction mixtures at various time intervals were analyzed by RP HPLC (as described in Materials and Methods).
In Table 4, cap analogs at 4 μM concentration were subjected to enzymatic digestion by DcpS in conditions leading to complete degradation of the unmodified parent compound (i.e. m^7GpppG for non-ARCA S-analogs and m2^7,2′-OGpppG for ARCAs) within 40-90 min. Samples collected from reaction mixtures at various time intervals were analysed by RP HPLC with UV detection at 260 nm as described in Materials and Methods. […] The result was unchanged even if the reaction time was extended to 24 h, various amounts of enzyme were used, and composition of the reaction buffer was modified.

[2] = test system: HC11 cells; experiment: Polysomal distribution of capped luciferase mRNA in HC11 cells; format: cell-based, mouse; conditions: HC11 cells lysed 4 h after electroporation, sucrose gradient
Experimental: To separate ribosomal subunits and initiation complexes, 4×10^6 HC11 cells were treated for 2 min with ice-cold PBS containing 0.1 mg/ml cycloheximide, washed twice with the same medium, and lysed in 600 μl of 0.3 M NaCl, 15 mM Tris-HCl (pH 7.6), 15 mM MgCl2, 1% Triton X-100, 1 mg/ml heparin, and 0.1 mg/ml cycloheximide. After centrifugation at 14,000×g for 10 min, the supernatant was layered on a 15-45% sucrose gradient in the same buffer but lacking Triton X-100 and centrifuged in a Beckman SW41 Ti rotor at 38,000 rpm at 4° C. for 2 h. Gradients were fractionated with continuous monitoring of absorbance at 260 nm. RNA from each fraction (1 ml) was isolated and analyzed by real time PCR.
We used an independent method to validate the observation that m2^7,2′-OGppspG-capped mRNAs were translated more efficiently, namely, their polysomal distribution (FIGS. 9A-9E). An increase in the rate of initiation relative to elongation or termination results in a shift of the mRNA from lighter to heavier polysomes. See H. Lodish, “Model for the regulation of mRNA translation applied to haemoglobin synthesis,” Nature, vol. 251, pp. 385-388 (1974). The type of cap structure is not expected to affect the rate of elongation. Thus, a shift to higher polysomes indicates faster initiation.
Luc A60 mRNA capped with m^7 Gp3G, m2^7,2′-OGp3G or m2^7,2′-OGppspG (D2) was electroporated into HC11 cells. […]

[3] = test system: rabbit reticulocyte lysate; experiment: Cell-free translation of capped Luc-A60 mRNA in the rabbit reticulocyte lysate system; format: biochemical; conditions: data not shown
Excerpt: Luc-A60 mRNA capped with m2^7,2′-OGppspG (D1) and m2^7,2′-OGppspG (D2) was translated 2.8- and 5.1-fold more efficiently than m^7Gp3G-capped mRNA, respectively (FIG. 8 and Table 2). For cell-free translation in the rabbit reticulocyte lysate system, Luc-A60 mRNAs capped with m2^7,2′-OGppspG (D1) and m2^7,2′-OGppspG (D2) were translated only 2.3-fold more efficiently than Luc-A60 mRNA capped with m^7Gp3G (data not shown).

`CO[C@@H]1[C@H](O)[C@@H](COP(=O)(O)OP(=O)([O-])OP(=O)(O)OC[C@H]2O[C@@H](n3cnc4c(=O)[nH]c(N)nc43)[C@H](O)[C@@H]2O)O[C@H]1n1c[n+](C)c2c(O)nc(N)nc21` [m2^7,2′-OGpppG, reference compound] was tested. Which “Resistance to enzymatic hydrolysis by DcpS (human)” value (shortened to “Resistance to enzymatic hydrolysis”) [1] did it give?
Its value is “hydrolyzed”.

And the “polysomal distribution of capped Luc A60 mRNA” value [2]?
The value was “shifted to higher polysomes”.

m2^7,2′-OGpppsG (D1) [Compound 4a] was tested. Which “Resistance to enzymatic hydrolysis” value [1] did it give?
Its value is “hydrolyzed”.

For m2^7,2′-OGpppsG (D2) [Compound 4b], which “Resistance to enzymatic hydrolysis” value [1] is on record?
The value was “hydrolyzed”.

For m2^7,2′-OGppspG (D1) [Compound 5a], which “translational efficiency relative to m^7Gp3G-capped Luc-A60 mRNA” value [3] is on record?
Its value is 2.3 fold.

What about the “Resistance to enzymatic hydrolysis” value [1] of the same molecule?
The value was “hydrolyzed”.

Which results are given for m2^7,2′-OGppspG (D2) [Compound 5b]?
translational efficiency relative to m^7Gp3G-capped Luc-A60 mRNA [3]: 2.3 fold; Resistance to enzymatic hydrolysis by DcpS (human) [1]: hydrolyzed; polysomal distribution of capped Luc A60 mRNA [2]: shifted to even higher polysomes

m2^7,2′-OGpsppG (D1) [Compound 6a] was tested. Which “Resistance to enzymatic hydrolysis” value [1] did it give?
Its value is “resistant”.

Which “Resistance to enzymatic hydrolysis” value [1] does the source give for m2^7,2′-OGpsppG (D2) [Compound 6b] here?
Its value is “resistant”.
